In ChEMBL document CHEMBL3526130, “An evaluation of using rat-derived single-dose neuropharmacokinetic parameters to project accurately large animal unbound brain drug concentrations” (Drug Metab Dispos, 2012):

Key:
[1] = Ratio of unbound drug level in brain to plasma in Sprague-Dawley rat at 3 mg/kg, sc by LC-MS/MS analysis; format: ADME, organism-based; set-up: dose 3 mg/kg, route subcutaneous
[2] = Ratio of unbound brain concentration to drug level in cerebrospinal fluid in Sprague-Dawley rat at 3 mg/kg, sc by LC-MS/MS analysis; format: ADME, organism-based; set-up: dose 3 mg/kg, route subcutaneous; details: in vivo
[3] = AUC(0 to 7 hrs) in Sprague-Dawley rat cerebrospinal fluid at 3 mg/kg, sc by LC-MS/MS analysis; format: ADME, organism-based; set-up: time < 7 hr, dose 3 mg/kg, route subcutaneous
[4] = AUC(0 to infinity) in Sprague-Dawley rat cerebrospinal fluid at 3 mg/kg, sc by LC-MS/MS analysis; format: ADME, organism-based; set-up: dose 3 mg/kg, route subcutaneous, time infinity
[5] = Ratio of drug level in brain to plasma in Sprague-Dawley rat at 3 mg/kg, sc by LC-MS/MS analysis; format: ADME, organism-based; set-up: dose 3 mg/kg, route subcutaneous; details: read-out: BPR
Nucleic Acid [6] = assay: Ratio of drug level in cerebrospinal fluid to unbound plasma concentration in Sprague-Dawley rat at 3 mg/kg, sc by LC-MS/MS analysis; format: ADME, organism-based; set-up: dose 3 mg/kg, route subcutaneous; details: in vivo
[7] = AUC(0 to infinity) in Sprague-Dawley rat plasma at 3 mg/kg, sc by LC-MS/MS analysis; format: ADME, organism-based; set-up: time infinity, dose 3 mg/kg, route subcutaneous
[8] = AUC(0 to 7 hrs) in Sprague-Dawley rat brain at 3 mg/kg, sc by LC-MS/MS analysis; format: ADME, organism-based; set-up: time < 7 hr, dose 3 mg/kg, route subcutaneous
[9] = AUC(0 to infinity) in Sprague-Dawley rat brain at 3 mg/kg, sc by LC-MS/MS analysis; format: ADME, organism-based; set-up: dose 3 mg/kg, route subcutaneous, time infinity
[10] = AUC(0 to 7 hrs) in Sprague-Dawley rat plasma at 3 mg/kg, sc by LC-MS/MS analysis; format: ADME, organism-based; set-up: time < 7 hr, dose 3 mg/kg, route subcutaneous
[11] = Ratio of unbound brain concentration to drug level in cerebrospinal fluid in Beagle dog treated with risperidone at 0.1 mg/kg, sc by LC-MS/MS analysis; format: ADME, organism-based, Canis lupus familiaris; set-up: dose 0.1 mg/kg, route subcutaneous; details: in vivo
[12] = AUC(0 to 2 hrs) in Sprague-Dawley rat plasma treated with risperidone at 1 mg/kg, sc by LC-MS/MS analysis; format: ADME, organism-based; set-up: time < 2 hr, dose 1 mg/kg, route subcutaneous
[13] = AUC(0 to 2 hrs) in Beagle dog cerebrospinal fluid treated with risperidone at 0.1 mg/kg, sc by LC-MS/MS analysis; format: ADME, organism-based, Canis lupus familiaris; set-up: time < 2 hr, dose 0.1 mg/kg, route subcutaneous
[14] = AUC(0 to infinity) in Sprague-Dawley rat cerebrospinal fluid treated with risperidone at 1 mg/kg, sc by LC-MS/MS analysis; format: ADME, organism-based; set-up: time infinity, dose 1 mg/kg, route subcutaneous
[15] = AUC(0 to 2 hrs) in Beagle dog brain treated with risperidone at 0.1 mg/kg, sc by LC-MS/MS analysis; format: ADME, organism-based, Canis lupus familiaris; set-up: time < 2 hr, dose 0.1 mg/kg, route subcutaneous
[16] = Unbound fraction in Beagle dog plasma treated with risperidone at 0.1 mg/kg, sc by LC-MS/MS analysis; format: ADME, organism-based, Canis lupus familiaris; set-up: dose 0.1 mg/kg, route subcutaneous
[17] = Ratio of drug level in brain to plasma in Beagle dog treated with risperidone at 0.1 mg/kg, sc by LC-MS/MS analysis; format: ADME, organism-based, Canis lupus familiaris; set-up: dose 0.1 mg/kg, route subcutaneous; details: brain and plasma, read-out: BPR
[18] = AUC(0 to 2 hrs) in Sprague-Dawley rat cerebrospinal fluid treated with risperidone at 1 mg/kg, sc by LC-MS/MS analysis; format: ADME, organism-based; set-up: time < 2 hr, dose 1 mg/kg, route subcutaneous
[19] = AUC(0 to infinity) in Sprague-Dawley rat plasma treated with risperidone at 1 mg/kg, sc by LC-MS/MS analysis; format: ADME, organism-based; set-up: time infinity, dose 1 mg/kg, route subcutaneous
[20] = AUC(0 to 1 hr) in cynomolgus monkey brain treated with risperidone at 0.1 mg/kg, sc by LC-MS/MS analysis; format: ADME, organism-based, Macaca fascicularis; set-up: time < 1 hr, dose 0.1 mg/kg, route subcutaneous
[21] = Ratio of unbound brain concentration to drug level in cerebrospinal fluid in Sprague-Dawley rat treated with risperidone at 1 mg/kg, sc by LC-MS/MS analysis; format: ADME, organism-based; set-up: dose 1 mg/kg, route subcutaneous; details: in vivo
[22] = Unbound fraction in cynomolgus monkey plasma treated with risperidone at 0.1 mg/kg, sc by LC-MS/MS analysis; format: ADME, organism-based, Macaca fascicularis; set-up: dose 0.1 mg/kg, route subcutaneous
Nucleic Acid [23] = assay: Ratio of drug level in cerebrospinal fluid to unbound plasma concentration in Sprague-Dawley rat treated with risperidone at 1 mg/kg, sc by LC-MS/MS analysis; format: ADME, organism-based; set-up: dose 1 mg/kg, route subcutaneous; details: in vivo
[24] = Ratio of unbound brain concentration to drug level in cerebrospinal fluid in cynomolgus monkey treated with risperidone at 0.1 mg/kg, sc by LC-MS/MS analysis; format: ADME, organism-based, Macaca fascicularis; set-up: dose 0.1 mg/kg, route subcutaneous; details: in vivo
[25] = Ratio of unbound drug level in brain to plasma in Sprague-Dawley rat treated with risperidone at 1 mg/kg, sc by LC-MS/MS analysis; format: ADME, organism-based; set-up: dose 1 mg/kg, route subcutaneous
[26] = Ratio of drug level in brain to plasma in Sprague-Dawley rat treated with risperidone at 1 mg/kg, sc by LC-MS/MS analysis; format: ADME, organism-based; set-up: dose 1 mg/kg, route subcutaneous; details: read-out: BPR
[27] = Ratio of unbound drug level in brain to plasma in cynomolgus monkey treated with risperidone at 0.1 mg/kg, sc by LC-MS/MS analysis; format: ADME, organism-based, Macaca fascicularis; set-up: dose 0.1 mg/kg, route subcutaneous; details: brain and plasma
[28] = Ratio of drug level in brain to plasma in cynomolgus monkey treated with risperidone at 0.1 mg/kg, sc by LC-MS/MS analysis; format: ADME, organism-based, Macaca fascicularis; set-up: dose 0.1 mg/kg, route subcutaneous; details: brain and plasma, read-out: BPR
[29] = AUC(0 to 2 hrs) in Beagle dog plasma treated with risperidone at 0.1 mg/kg, sc by LC-MS/MS analysis; format: ADME, organism-based, Canis lupus familiaris; set-up: time < 2 hr, dose 0.1 mg/kg, route subcutaneous
[30] = AUC(0 to 1 hr) in cynomolgus monkey cerebrospinal fluid treated with risperidone at 0.1 mg/kg, sc by LC-MS/MS analysis; format: ADME, organism-based, Macaca fascicularis; set-up: time < 1 hr, dose 0.1 mg/kg, route subcutaneous
[31] = AUC(0 to 1 hr) in cynomolgus monkey plasma treated with risperidone at 0.1 mg/kg, sc by LC-MS/MS analysis; format: ADME, organism-based, Macaca fascicularis; set-up: time < 1 hr, dose 0.1 mg/kg, route subcutaneous
[32] = Unbound fraction in Beagle dog brain treated with risperidone at 0.1 mg/kg, sc by LC-MS/MS analysis; format: ADME, organism-based, Canis lupus familiaris; set-up: dose 0.1 mg/kg, route subcutaneous
[33] = Ratio of unbound drug level in brain to plasma in Beagle dog treated with risperidone at 0.1 mg/kg, sc by LC-MS/MS analysis; format: ADME, organism-based, Canis lupus familiaris; set-up: dose 0.1 mg/kg, route subcutaneous; details: brain and plasma
[34] = Unbound fraction in cynomolgus monkey brain treated with risperidone at 0.1 mg/kg, sc by LC-MS/MS analysis; format: ADME, organism-based, Macaca fascicularis; set-up: dose 0.1 mg/kg, route subcutaneous
[35] = AUC(0 to 2 hrs) in Sprague-Dawley rat brain treated with risperidone at 1 mg/kg, sc by LC-MS/MS analysis; format: ADME, organism-based; set-up: time < 2 hr, dose 1 mg/kg, route subcutaneous
[36] = AUC(0 to infinity) in Sprague-Dawley rat brain treated with risperidone at 1 mg/kg, sc by LC-MS/MS analysis; format: ADME, organism-based; set-up: time infinity, dose 1 mg/kg, route subcutaneous

With `CCN(CC)CCNC(=O)c1cc(Cl)c(N)cc1OC` [METOCLOPRAMIDE] as the molecule, how does the Kp uu [1] read?
The Kp uu was 0.89.

What about the Ratio [2] of the same molecule?
Its Ratio is 0.5.

What about the AUC(0-t) at 7 h [3] of the same molecule?
Its AUC(0-t) at 7 h is 418 ng·h/mL.

And the AUC(0-inf) [4]?
Its AUC(0-inf) is 420 ng·h/mL.

And the Kp [5]?
The Kp was 1.72.

And the Ratio (Nucleic Acid [6])?
Its Ratio is 1.8.

What about the AUC(0-inf) [7] of the same molecule?
Its AUC(0-inf) is 367 ng·h/mL.

What about the AUC(0-t) at 7 h [8] of the same molecule?
Its AUC(0-t) at 7 h is 629 ng·h/mL.

What about the AUC(0-inf) [9] of the same molecule?
The AUC(0-inf) was 635 ng·h/mL.

And the AUC(0-t) at 7 h [10]?
The AUC(0-t) at 7 h was 365 ng·h/mL.

Which Kp uu [1] does the source give for `NC(=O)N1c2ccccc2C=Cc2ccccc21` [CARBAMAZEPINE] here?
The Kp uu was 0.45.

And the Ratio [2]?
Its Ratio is 0.5.

What about the AUC(0-t) at 7 h [3] of the same molecule?
The AUC(0-t) at 7 h was 456 ng·h/mL.

What about the AUC(0-inf) [4] of the same molecule?
The AUC(0-inf) was 458 ng·h/mL.

And the Kp [5]?
The Kp was 1.12.

And the Ratio (Nucleic Acid [6])?
The Ratio was 0.9.

What about the AUC(0-inf) [7] of the same molecule?
The AUC(0-inf) was 2280 ng·h/mL.

What about the AUC(0-t) at 7 h [8] of the same molecule?
The AUC(0-t) at 7 h was 2540 ng·h/mL.

What about the AUC(0-inf) [9] of the same molecule?
The AUC(0-inf) was 2550 ng·h/mL.

What about the AUC(0-t) at 7 h [10] of the same molecule?
The AUC(0-t) at 7 h was 2270 ng·h/mL.

For `Nc1nc(O)c2ncn(COC(CO)CO)c2n1` [GANCICLOVIR], which Kp uu [1] is on record?
Its Kp uu is 0.09.

What about the Ratio [2] of the same molecule?
The Ratio was 1.85.

And the AUC(0-t) at 7 h [3]?
The AUC(0-t) at 7 h was 78.4 ng·h/mL.

What about the AUC(0-inf) [4] of the same molecule?
The AUC(0-inf) was 82.5 ng·h/mL.

What about the Kp [5] of the same molecule?
Its Kp is 0.1.

And the Ratio (Nucleic Acid [6])?
The Ratio was 0.05.

What about the AUC(0-inf) [7] of the same molecule?
Its AUC(0-inf) is 1720 ng·h/mL.

And the AUC(0-t) at 7 h [8]?
Its AUC(0-t) at 7 h is 170 ng·h/mL.

And the AUC(0-inf) [9]?
Its AUC(0-inf) is 182 ng·h/mL.

What about the AUC(0-t) at 7 h [10] of the same molecule?
The AUC(0-t) at 7 h was 1700 ng·h/mL.

For `Cc1nc2n(c(=O)c1CCN1CCC(c3noc4cc(F)ccc34)CC1)CCCC2O` (stereo unspecified) [PALIPERIDONE], which Ratio [11] is on record?
The Ratio was 0.68.

What about the AUC(0-t) at 2 h [12] of the same molecule?
The AUC(0-t) at 2 h was 184 ng·h/mL.

And the AUC(0-t) at 2 h [13]?
The AUC(0-t) at 2 h was 6.27 ng·h/mL.

And the AUC(0-inf) [14]?
Its AUC(0-inf) is 12.2 ng·h/mL.

And the AUC(0-t) at 2 h [15]?
The AUC(0-t) at 2 h was 47.1 ng·h/mL.

And the fraction unbound [16]?
The fraction unbound was 0.203.

What about the Kp [17] of the same molecule?
The Kp was 0.61.

What about the AUC(0-t) at 2 h [18] of the same molecule?
Its AUC(0-t) at 2 h is 3.28 ng·h/mL.

What about the AUC(0-inf) [19] of the same molecule?
Its AUC(0-inf) is 342 ng·h/mL.

And the AUC(0-t) at 1 h [20]?
Its AUC(0-t) at 1 h is 24.8 ng·h/mL.

What about the Ratio [21] of the same molecule?
Its Ratio is 0.31.

And the fraction unbound [22]?
Its fraction unbound is 0.185.

And the Ratio (Nucleic Acid [23])?
The Ratio was 0.14.

What about the Ratio [24] of the same molecule?
Its Ratio is 1.03.

And the Kp uu [25]?
Its Kp uu is 0.04.

And the Kp [26]?
The Kp was 0.07.

And the Kp uu [27]?
Its Kp uu is 0.19.

And the Kp [28]?
Its Kp is 0.33.

And the AUC(0-t) at 2 h [29]?
Its AUC(0-t) at 2 h is 77.4 ng·h/mL.

And the AUC(0-t) at 1 h [30]?
Its AUC(0-t) at 1 h is 2.54 ng·h/mL.

What about the AUC(0-t) at 1 h [31] of the same molecule?
The AUC(0-t) at 1 h was 76 ng·h/mL.

And the fraction unbound [32]?
Its fraction unbound is 0.0903.

And the Kp uu [33]?
The Kp uu was 0.27.

What about the fraction unbound [34] of the same molecule?
The fraction unbound was 0.105.

And the AUC(0-t) at 2 h [35]?
Its AUC(0-t) at 2 h is 13.5 ng·h/mL.

And the AUC(0-inf) [36]?
The AUC(0-inf) was 69 ng·h/mL.
